{
  "source": "paper PMC7352759",
  "about": "“S(+)-(2E)-N-(2-Hydroxypropyl)-3-Phenylprop-2-Enamide (KM-568): A Novel Cinnamamide Derivative with Anticonvulsant Activity in Animal Models of Seizures and Epilepsy” (International Journal of Molecular Sciences, 2020)",
  "key": {"HepG2 cells [1]": {"system": "HepG2 cells", "test": "MTT cytotoxicity assay, HepG2", "format": "cell-based, human", "method": "(§1) Human liver cancer HepG2 cell line (ATCC HB8065) and rat cardiomyoblast cell line H9c2 (ATCC-CRL1446) were purchased in ATCC (American Type Culture Collection, Manassas, VA, USA). The cells were cultured in standard conditions (37 °C, 5% CO2) in EMEM medium (ATCC, Manassas, VA, USA), supplemented with 10% FBS (Gibco, Waltham, MA, USA) and antibiotics (1% streptomycin/penicillin mixture, Sigma–Aldrich, Darmstadt, Germany) or DMEM high glucose (ATCC, Manassas, VA, USA) supplemented with 10% FBS (Gibco, Waltham, MA, USA) and antibiotics (1% streptomycin/penicillin mixture, Sigma–Aldrich, Darmstadt, Germany), respectively.\nThe MTT colorimetric assay was used to determine the cytotoxic effects of the KM-568 and DOX (Sigma–Aldrich, Darmstadt, Germany). Cells were seeded at a density of 1 × 10^4 in 96-well plates. Following overnight culture, the cells were then treated with KM-568 and DOX in concentration range 0.1–200 µM (hepatocytotoxicity) or 0.1–100 µM (cardiocytotoxicity). Following cell exposure to each drug for 24 h in 96 well plates, 10 µL MTT reagent (Sigma–Aldrich, Darmstadt, Germany) was added to each well; after 4 h of incubation (37 °C, 5% CO2), the medium was aspirated and formazan produced in cells appeared as dark crystals in the bottom of the wells. […] Then, absorbance was measured at 570 nm on a multi-well plate reader (Spectra Max iD3, Molecular Devices, San Jose, CA, USA). […]"}, "CF-1 mice": {"system": "CF-1 mice", "test": "Chemoconvulsant test, bicuculine", "format": "in vivo", "settings": "0.25 h", "method": "Initially, compound KM-568 was administered i.p. at 130.0 mg/kg in two groups of CF-1 mice (n = 8). After 0.25 h, the subcutaneous injections of either bicuculine (2.7 mg/kg) or picrotoxin (2.5 mg/kg) were performed. The, animals were placed in isolation cages and observed for 30 min (in a bicuculine assay) or 45 min (in a picrotoxin assay) for the presence or absence of an episode of a clonic seizure."}, "[2]": {"system": "rat cerebral cortex GABA receptor", "test": "GABA receptor radioligand binding ([3H]GABA)", "settings": "10 µM; non-selective agonist radioligand", "method": "(§2) In order to identify molecular mechanism of action, KM-568 was tested at 10 µM in three radioligand binding assays: rat cerebral cortex GABA receptor non-selective agonist radioligand, AMPA (α-amino-3-hydroxy-5-methyl-4-isoxazolepropionic acid) receptor agonist radioligand, and NMDA (N-methyl-D-aspartate) receptor antagonist radioligand as well as one functional assay involving a human recombinant TRPV1 receptor expressed in CHO cells (agonist and antagonist effects).\n(§3) Tests were performed by Eurofins Cerep (Eurofins CEREP SA, Celle-Lévescault, France) as a commercial service. In radioligand assays, rat cerebral cortex GABA receptor as well as rat cerebral cortex AMPA (α-amino-3-hydroxy-5-methyl-4-isoxazolepropionic acid) and NMDA (N-methyl-D-aspartate) receptors with 10 nM [^3H]GABA, 8 nM [^3H]AMPA, and 5 nM [^3H]CGP39653, respectively, were used. The results were detected by means of scintillation counting. In functional assays, a human recombinant TRPV1 receptor expressed in Chinese hamster ovary (CHO) cells with 1 µM capsaicin or 30 nM capsazepine were used. Fluorimetry was used as a detection method."}, "HepG2 cells [3]": {"system": "HepG2 cells", "test": "LDH cytotoxicity assay, HepG2", "format": "cell-based, human", "settings": "HepG2, up to 100 µM, 24 h", "method": "as §1\nCells were seeded at density 5 × 10^4 cells/per well. After 24 h, KM-568 and reference standard DOX were added to final concentrations of 0.1; 0.5; 1.0; 10; 25; 50; 100; 200 µM. After 24 h incubation, plates were centrifuged (400 g, 2 min) and 50 μL of the supernatant was transferred into the corresponding 96-well plate. […] Next, stop solution was added and absorbance was measured at 490 nm on a multi-well plate reader (Spectra Max iD3, Molecular Devices, San Jose, CA, USA). Cytotoxicity was determined as follows: cytotoxicity (%)=[(compound LDH activity – spontaneous LDH activity)/(maximum LDH activity – spontaneous LDH activity)] × 100. […]"}, "[4]": {"molecular_target": "T1, human recombinant TRPV1 receptor expressed in CHO cells (Homo sapiens, UniProt Q8NER1)", "T1 construct": "host or cells: CHO cells", "T1 sequence (Q8NER1 whole entry)": "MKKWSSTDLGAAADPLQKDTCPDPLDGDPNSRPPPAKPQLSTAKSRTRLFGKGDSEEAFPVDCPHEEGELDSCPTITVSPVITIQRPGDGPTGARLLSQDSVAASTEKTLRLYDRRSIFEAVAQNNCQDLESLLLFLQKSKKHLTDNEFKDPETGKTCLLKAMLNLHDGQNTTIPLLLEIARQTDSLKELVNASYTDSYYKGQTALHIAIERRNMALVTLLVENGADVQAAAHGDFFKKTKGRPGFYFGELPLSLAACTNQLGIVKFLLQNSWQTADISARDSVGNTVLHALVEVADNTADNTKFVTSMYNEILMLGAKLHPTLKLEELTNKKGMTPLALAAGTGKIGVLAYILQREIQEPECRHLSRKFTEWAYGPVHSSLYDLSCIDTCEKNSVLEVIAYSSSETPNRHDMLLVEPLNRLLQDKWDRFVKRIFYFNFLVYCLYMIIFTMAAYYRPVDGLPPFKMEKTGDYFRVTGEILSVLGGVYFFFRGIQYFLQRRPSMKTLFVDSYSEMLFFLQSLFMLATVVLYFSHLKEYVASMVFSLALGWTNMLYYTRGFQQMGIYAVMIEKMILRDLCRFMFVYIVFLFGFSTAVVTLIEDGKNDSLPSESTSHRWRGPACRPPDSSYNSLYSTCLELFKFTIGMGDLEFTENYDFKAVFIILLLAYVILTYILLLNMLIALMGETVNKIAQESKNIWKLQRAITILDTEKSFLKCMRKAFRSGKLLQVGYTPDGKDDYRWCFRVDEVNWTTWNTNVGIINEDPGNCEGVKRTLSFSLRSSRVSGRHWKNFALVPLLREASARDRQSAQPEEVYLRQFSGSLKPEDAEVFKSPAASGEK", "test": "TRPV1 functional assay (agonist and antagonist effects)", "format": "cell-based", "settings": "10 µM", "method": "as §2, §3"}, "mice": {"system": "mice", "test": "Formalin test of hyperalgesia", "format": "in vivo", "settings": "44 mg/kg i.p.; for Reduction of time of licking of the affected paw: not statistically significant; for AUC % Control: vs methylcellulose", "method": "0.05% formalin was injected subdermal to the hindpaws of mice, which caused licking. In the tested group (n = 8), KM-568 was administered intraperitoneally 0.25 h prior to formalin at the dose of 44 mg/kg. In the control group, methylcellulose was used. Animals were then observed for the first 2 min of each 5 min for a total of 40 min. The cumulative duration of licking (in sec) during each 2-min recording period was measured for analysis across compound and vehicle-pretreated groups."}},
  "data": [
    {"smiles": "C[C@H](O)CNC(=O)/C=C/c1ccccc1", "note": "[KM-568, S(+)-(2E)-N-(2-hydroxypropyl)-3-phenylprop-2-enamide]", "values": [
      {"measurement": "percent of living cells", "setting": "HepG2 cells [1]; HepG2, 24 h incubation with 100 µM", "result": "~100", "unit": "%"},
      {"measurement": "cytotoxic effect, MTT assay", "setting": "HepG2 cells [1]; HepG2, up to 100 µM, 24 h", "result": "no cytotoxic effect"},
      {"measurement": "ED50", "setting": "CF-1 mice; Mus musculus, ip", "result": "> 130", "unit": "mg/kg"},
      {"measurement": "Bicuculine Results (protected/tested animals)", "setting": "CF-1 mice; i.p., 130 mg/kg", "result": "0/8"},
      {"measurement": "Effect in GABA receptor radioligand binding assay", "setting": "[2]", "result": "No significant effects"},
      {"measurement": "cytotoxic effect, LDH assay", "setting": "HepG2 cells [3]", "result": "no cytotoxic effect"},
      {"measurement": "TRPV1 agonist effect", "setting": "[4]", "result": "No significant effects"},
      {"measurement": "TRPV1 antagonist effect", "setting": "[4]", "result": "No significant effects"},
      {"measurement": "AUC (total area under curve, time of licking)", "setting": "mice; acute phase", "result": 184.18},
      {"measurement": "Reduction of time of licking of the affected paw", "setting": "mice; acute phase", "result": 24, "unit": "%"},
      {"measurement": "AUC % Control", "setting": "mice; acute phase", "result": 76.37, "unit": "% Control"},
      {"measurement": "AUC (total area under curve, time of licking)", "setting": "mice; inflammatory phase", "result": 556.81},
      {"measurement": "Reduction of time of licking of the affected paw", "setting": "mice; inflammatory phase", "result": 32, "unit": "%"},
      {"measurement": "AUC % Control", "setting": "mice; inflammatory phase", "result": 67.96, "unit": "% Control"}
    ]}
  ]
}
